Laboratory results: patent publication US4666908A, “5-Substituted pyrazolo[4,3-d]pyrimidine-7-ones and methods of use” (Warner-Lambert Company, priority 1985, dated 1987)
Read-outs that look alike come from different tables or passages of the source. Each block holds one compound with its values, some of them ahead of it.

Tests used:
Type 3 Phosphodiesterase = assay: Phosphodiesterase (PDE) Inhibition, Type 3 Phosphodiesterase; type: biochemical, bovine (coronary arteries); conditions: Type 3 PDE, at 10^-5 M, substrate 3H-cAMP 1.0 μM
Description: (§1) The method of Thompson, et al (Thompson, W. J., Terasaki, W. L., Epstein, P. M., Strada, S. J., Adv. Cyclic Nucleotide Res., 10:69-92, 1979), with minor modifications, was used to isolate phosphodiesterases from vascular smooth muscle. Bovine coronary arteries (right, anterior descending, and left circumflex arteries) from hearts obtained from a local slaughterhouse were used for these studies. Arteries from two hearts were used for each isolation. Hearts were kept on ice and the arteries were dissected within two hours after the animals were sacrificed. After removing all fat and connective tissue, the arteries were everted, cut into cubes with a single edge razor blade and homogenized with a Brinkman Polytron three times at a rheostat setting of 10.0 in four volumes of the PDE isolation buffer (10 mM Tris-HCl/pH 7.5, 2 mM MgCl2, and 1 mM dithiothreitol). The resulting homogenate was sonicated (30 sec/ml homogenate) and then centrifuged at 30,000 xg for 20 minutes. This and all subsequent procedures were performed at 4° C. The resulting supernatant was filtered through four layers of gauze, and applied to a DEAE-cellulose column (30×1.5 cm), prepared as described by Cheung (Cheung, W. Y., Biochim. Biophys. Acta, 191:303-315, 1969), and equilibrated with freshly prepared 70 mM sodium acetate/5 mM 2-mercaptoethanol (pH 6.5). The column was then washed with 2-3 bed volumes of sodium acetate/2-mercaptoethanol, after which the phosphodiesterases were eluted from the column using a continuous 70-1,000 mM sodium acetate gradient (pH 6.5, containing 5 mM 2-mercaptoethanol; total volume 400 ml). The flow rate was approximately equal to 25 ml/hr. Eight ml fractions were collected and assayed for cyclic AMP- and cyclic GMP-phosphodiesterase activity in the presence and absence of 0.1 units of calmodulin and 10 mM CaCl2. Appropriate fractions were pooled and dialyzed against 70 mM sodium acetate/5 mM 2-mercaptoethanol for 20 hours.
(§2) Following complete separation, the combined phosphodiesterase fractions were concentrated to 14% of the original volume using an Amicon ultrafiltration cell fitted with a UM-10 membrane, according to the method of Wells, et al (Wells, J. N., Baird, C. E., Wu, Y. J., Hardman, J. G., Biochim. Biophys. Acta, 384:430-442, 1975). Following concentration, the protein was then diluted to 65% with ethylene glycol monoethyl ether, and stored at -20° C.
(§3) Phosphodiesterase activity was measured as described previously (Weishaar, P. E., Quade, M., Boyd, D., Schenden, J., Mark, S. S., Kaplan, H. R., Drug Devel. Res., 3:517-534, 1983), in a reaction medium containing 40 mM Tris-HCl (pH 8.0), 5 mM MgCl and 4 mM 2-mercaptoethanol. Unless otherwise noted, the concentration of substrate (^3 H-cyclic AMP or ^3 H-cyclic GMP) was 1.0 μM. All agents examined were dissolved in dimethyl sulfoxide (DMSO). Final concentration of the reaction medium was either 2.5% (cardiac and platelet studies) or 1.25% (smooth muscle studies). This concentration of DMSO produced an approximately 10% inhibition of enzyme activity.

Type 1 Phosphodiesterase = assay: Phosphodiesterase (PDE) Inhibition, Type 1 Phosphodiesterase; type: biochemical, bovine (coronary arteries); conditions: Type 1 PDE, at 10^-5 M; for % Inhibition of hydrolysis of 3H-cAMP: substrate 3H-cAMP 1.0 μM; for % Inhibition of hydrolysis of 3H-cGMP: substrate 3H-cGMP 1.0 μM
Description: as §1, §2, §3

adenosine A1 receptor = target: T1, adenosine A1 receptor (Rattus norvegicus, UniProt P25099); assay: Adenosine Receptor Binding - A1 Receptor Affinity (RBA1), [3H]-N6-cyclohexyladenosine displacement; conditions: [3H]-CHA 1.0 nM, rat brain membranes, 25° C., one hour; read-out: RBA-1, IC50 for adenosine A1 receptor affinity
T1 construct: Whole brain minus cerebellum and brainstem from male Long Evans rats; from tissue; host or cells: whole brain minus cerebellum and brainstem, male Long Evans rats (membranes)
T1 sequence (P25099 1-326): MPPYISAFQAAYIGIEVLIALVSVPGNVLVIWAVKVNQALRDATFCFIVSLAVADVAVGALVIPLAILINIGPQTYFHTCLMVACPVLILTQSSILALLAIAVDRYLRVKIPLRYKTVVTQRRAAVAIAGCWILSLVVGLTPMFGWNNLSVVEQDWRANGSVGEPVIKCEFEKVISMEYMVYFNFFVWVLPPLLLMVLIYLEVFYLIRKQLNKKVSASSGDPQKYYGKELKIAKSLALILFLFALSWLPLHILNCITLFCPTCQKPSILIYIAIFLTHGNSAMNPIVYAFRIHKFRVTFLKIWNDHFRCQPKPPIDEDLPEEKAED
Method: Whole brain minus cerebellum and brainstem from male Long Evans rats (150-200 g) was homogenized in 30 volumes of ice-cold 0.05M Tris-HCl buffer pH 7.7 using a Brinkman Polytron PT-10, (setting number 6 for 20 seconds) and centrifuged for ten minutes at 20,000×g (Sorvall RC-2), 4° C. The supernatant was discarded, and the pellet was resuspended and centrifuged as before. […] The homogenate was again centrifuged, and the final pellet was resuspended in ice-cold 0.05 M Tris-HCl buffer pH 7.7 to a concentration of 20 mg/ml original wet tissue weight and used immediately. […] Incubation volume was 2 ml. […] The filters were rinsed three times with 5 ml of ice cold 0.05 M Tris-HCl buffer pH 7.7. The radio-labeled ligand retained on the filter was measured by liquid scintillation spectrophotometry after shaking the filters for one hour or longer on a mechanical shaker in 10 ml of Beckman Ready-Solv HP scintillation cocktail. […] The Hill coefficient was calculated by linear regression of the line obtained by plotting the log of the bound radioligand vs the log of the [formula] The maximal number of binding sites (Bmax) was calculated from the Scatchard plot.

[1] = test system: pentobarbital-anesthetized dog; assay: In Vivo Myocardial Inotropic Activity in Anesthetized Dog (CVAD); design: species or system dog (adult mongrel); conditions: for change in vivo at 0.1 mg/kg / change in vivo at 0.31 mg/kg / change in vivo at 1 mg/kg / change in vivo at 3.1 mg/kg / change in vivo at 0.01 mg/kg / change in vivo at 0.03 mg/kg / change in vivo at 0.3 mg/kg: Canis lupus familiaris, iv; for change in vivo at 3.1 mg/kg: 3.10 mg/kg IV; for change in vivo at 0.3 mg/kg: Test 1, 0.30 mg/kg IV
Method: This test procedure is described in the following paragraphs.
This screen consists of determining the effects of increasing intravenous doses of compound on mycardial contractility (dP/dt max of left ventricular blood pressure), heart rate, and aortic blood pressure of the pentobarbital-anesthetized dog.
Adult mongrel dogs of either sex are anesthetized with pentobarbital, 35 mg/kg, IV, and are subsequently maintained under anesthesia with a continuous infusion of pentobarbital, 3.5 mg/kg/hour. The trachea is intubated but the animals are permitted to breathe spontaneously. A cannula is inserted into the femoral vein for administrating test agents. A Millar catheter tip pressure transducer or a fluid filled catheter is inserted into the ascending aorta via the femoral artery for measuring aortic blood pressure. A Millar catheter tip pressure transducer is passed into the left ventricle via the left carotid artery for measuring left ventricular blood pressure. Needle electrodes are placed subcutaneously for recording a lead II electrocardiogram (ECG).
Left ventricular and aortic blood pressures are recorded on a strip chart recorder. Heart rate, using a biotachometer triggered from the R wave of the ECG, and the first derivative of left ventricular blood pressure (dP/dt), obtained with a differentiator amplifier coupled to the corresponding pressure amplifier, are also recorded. A period of at least 30 minutes is utilized to obtain control data prior to administration of test compound.
Ethanol or dimethylacetamide can be used as solvents if adequate dilutions can be made. Appropriate vehicle controls are administered when needed.
Each dose of the test compound is administered in a volume of […] over a period of one minute.

[2] = 0.31 mg/kg IV, read-out: Percent Change Heart Rate
[3] = 0.31 mg/kg IV, read-out: Percent Change Myocardial Contractility
[4] = 1.00 mg/kg IV, read-out: Percent Change Heart Rate
[5] = 1.00 mg/kg IV, read-out: Percent Change Myocardial Contractility
[6] = read-out: Percent Change Heart Rate
[7] = read-out: Percent Change Myocardial Contractility

Structure (SMILES): Cc1nn(C)c2c(=O)[nH]c(-c3ccc(C(F)(F)F)cc3)nc12 [Example 10]
% Inhibition of hydrolysis of 3H-cAMP (Type 3 Phosphodiesterase): -9% | % Inhibition of hydrolysis of 3H-cAMP (Type 1 Phosphodiesterase): 12% | % Inhibition of hydrolysis of 3H-cGMP (Type 1 Phosphodiesterase): 1% | IC50 (adenosine A1 receptor): 0.463 µM

Structure (SMILES): Cc1nn(C)c2c(=O)[nH]c(-c3ccc(Cl)cc3[N+](=O)[O-])nc12 [Example 18, 1,3-Dimethyl-5-(2-nitro-4-chlorophenyl)pyrazolo-[4,3-d]pyrimidine-7-one]
% Inhibition of hydrolysis of 3H-cAMP (Type 3 Phosphodiesterase): 7% | % Inhibition of hydrolysis of 3H-cAMP (Type 1 Phosphodiesterase): 7% | % Inhibition of hydrolysis of 3H-cGMP (Type 1 Phosphodiesterase): 5% | IC50 (adenosine A1 receptor): 8.5 µM

Structure (SMILES): Cc1nn(C)c2c(O)nc(-c3ccc(S(=O)(=O)O)cc3)nc12 [Example 20, 1,3-Dimethyl-5-(4-sulfoacid phenyl)pyrazolo[4,3-d]pyrimidine-7-one]
IC50 (adenosine A1 receptor): 13 µM

Structure (SMILES): COc1cc(OC)cc(-c2nc3c(C)nn(C)c3c(=O)[nH]2)c1 [Example 23, 1,3-Dimethyl-5-(3,5-dimethoxyphenyl)pyrazolo[4,3-d]-pyrimidine-7-one]
Percent Change Blood Pressure ([1]; 0.01 mg/kg IV): 2/2 | Percent Change Blood Pressure ([1]; 0.31 mg/kg IV): 3/4 | change in vivo at 0.01 mg/kg ([1]; 0.01 mg/kg IV, read-out: Percent Change Heart Rate): 1% | change in vivo at 0.01 mg/kg ([1]; 0.01 mg/kg IV, read-out: Percent Change Myocardial Contractility): 5% | change in vivo at 0.31 mg/kg [1, 2]: 3% | change in vivo at 0.31 mg/kg [1, 3]: 15% | change in vivo at 1 mg/kg [1, 4]: 6% | change in vivo at 1 mg/kg [1, 5]: 22%

Further lines, with some results ahead:

% Inhibition of hydrolysis of 3H-cAMP (Type 3 Phosphodiesterase): 13% | % Inhibition of hydrolysis of 3H-cAMP (Type 1 Phosphodiesterase): 7% | % Inhibition of hydrolysis of 3H-cGMP (Type 1 Phosphodiesterase): 11% | IC50 (adenosine A1 receptor): 0.408 µM
Structure (SMILES): Cc1nn(C)c2c(=O)[nH]c(-c3ccc(Cl)cc3)nc12 [Example 7, 1,3-Dimethyl-5-(4-chlorophenyl)pyrazolo[4,3-d]pyrimidne-7-one]

IC50 (adenosine A1 receptor): 10 µM
Structure (SMILES): COc1ccccc1-c1nc2c(C)nn(C)c2c(=O)[nH]1 [Example 14]
change in vivo at 0.1 mg/kg ([1]; 0.10 mg/kg IV, read-out: Percent Change Heart Rate): 2% | change in vivo at 0.1 mg/kg ([1]; 0.10 mg/kg IV, read-out: Percent Change Myocardial Contractility): 2% | change in vivo at 0.31 mg/kg [1, 2]: 4% | change in vivo at 0.31 mg/kg [1, 3]: 4% | change in vivo at 1 mg/kg [1, 4]: 14% | change in vivo at 1 mg/kg [1, 5]: 10% | change in vivo at 3.1 mg/kg [1, 6]: 27% | change in vivo at 3.1 mg/kg [1, 7]: 34%

% Inhibition of hydrolysis of 3H-cAMP (Type 3 Phosphodiesterase): 17% | % Inhibition of hydrolysis of 3H-cAMP (Type 1 Phosphodiesterase): 15% | % Inhibition of hydrolysis of 3H-cGMP (Type 1 Phosphodiesterase): 26% | IC50 (adenosine A1 receptor): 5.43 µM
Structure (SMILES): COc1ccc(-c2nc3c(C)nn(C)c3c(=O)[nH]2)c(OC)c1 [Example 17, 1,3-Dimethyl-5-(2,4-dimethoxyphenyl)pyrazolo[4,3-d]-pyrimidine-7-one]

IC50 (adenosine A1 receptor): 0.684 µM
Structure (SMILES): Cc1nn(C)c2c(=O)[nH]c(-c3ccc(S(=O)(=O)NCCN(C)C)cc3)nc12 [Example 21]

IC50 (adenosine A1 receptor): 8.2 µM
Structure (SMILES): CCn1nc(C)c2nc(Cc3ccccc3)[nH]c(=O)c21 [Example 22]
change in vivo at 0.01 mg/kg ([1]; Test 1, 0.01 mg/kg IV, read-out: Percent Change Heart Rate): -1% | change in vivo at 0.01 mg/kg ([1]; Test 1, 0.01 mg/kg IV, read-out: Percent Change Myocardial Contractility): 11% | change in vivo at 0.03 mg/kg ([1]; Test 1, 0.03 mg/kg IV, read-out: Percent Change Heart Rate): -1% | change in vivo at 0.03 mg/kg ([1]; Test 1, 0.03 mg/kg IV, read-out: Percent Change Myocardial Contractility): 12% | change in vivo at 0.1 mg/kg ([1]; Test 1, 0.10 mg/kg IV, read-out: Percent Change Heart Rate): -4% | change in vivo at 0.1 mg/kg ([1]; Test 1, 0.10 mg/kg IV, read-out: Percent Change Myocardial Contractility): 17% | change in vivo at 0.3 mg/kg [1, 6]: -10% | change in vivo at 0.3 mg/kg [1, 7]: 6% | change in vivo at 1 mg/kg ([1]; Test 1, 1.00 mg/kg IV, read-out: Percent Change Heart Rate): -12% | change in vivo at 1 mg/kg ([1]; Test 1, 1.00 mg/kg IV, read-out: Percent Change Myocardial Contractility): 14% | change in vivo at 0.01 mg/kg ([1]; Test 2, 0.01 mg/kg IV, read-out: Percent Change Heart Rate): -14% | change in vivo at 0.01 mg/kg ([1]; Test 2, 0.01 mg/kg IV, read-out: Percent Change Myocardial Contractility): -12% | change in vivo at 0.03 mg/kg ([1]; Test 2, 0.03 mg/kg IV, read-out: Percent Change Heart Rate): -17% | change in vivo at 0.03 mg/kg ([1]; Test 2, 0.03 mg/kg IV, read-out: Percent Change Myocardial Contractility): -13% | change in vivo at 0.1 mg/kg ([1]; Test 2, 0.10 mg/kg IV, read-out: Percent Change Heart Rate): -21% | change in vivo at 0.1 mg/kg ([1]; Test 2, 0.10 mg/kg IV, read-out: Percent Change Myocardial Contractility): -15% | change in vivo at 0.31 mg/kg ([1]; Test 2, 0.31 mg/kg IV, read-out: Percent Change Heart Rate): -22% | change in vivo at 0.31 mg/kg ([1]; Test 2, 0.31 mg/kg IV, read-out: Percent Change Myocardial Contractility): -14% | change in vivo at 1 mg/kg ([1]; Test 2, 1.00 mg/kg IV, read-out: Percent Change Heart Rate): -11% | change in vivo at 1 mg/kg ([1]; Test 2, 1.00 mg/kg IV, read-out: Percent Change Myocardial Contractility): 2% | Percent Change Blood Pressure ([1]; Test 1, 0.01 mg/kg IV): 1/0
